Consider six compounds from patent US20260184700A1, “PDK1 REGULATORY COMPOUND AND COMPOSITION CONTAINING THE SAME” (PROVIBIO CO., LTD., priority 2024, published 2026).

Experiment [1] deals with HCT-116 colon cancer cell lines. As to the kind of experiment: Invasion Assay using Matrigel, HCT-116. The experiment is classed as cell-based, human. Particulars: HCT-116, Matrigel invasion, 24 hours treatment. On the procedure:
To evaluate the metastasis inhibitory efficacy of the compounds of the present invention on HCT-116 colon cancer cell lines, an Invasion Assay using Matrigel was performed to assess the cells' invasion ability.
First, Matrigel was thawed on ice in RPMI-1640 medium without FBS, then diluted with DMEM at a ratio of 1:20.
The diluted Matrigel mixture was applied to the upper chamber at 100 μl per well, and 750 μl of RPMI-1640 without FBS was added to the lower chamber.
The plates were then incubated at 37° C. for 1 hour to allow the Matrigel to solidify.
After coating, the Matrigel mixture in the upper chamber was removed using a pipette, and the chamber was washed with RPMI without FBS.
Human-derived colorectal cancer cell line HCT-116, obtained from the Korean Cell Bank, was cultured in RPMI-1640 medium containing 10% FBS.
Following stabilization, the cells were harvested using Trypsin-EDTA treatment, centrifuged at 1,200 rpm for 3 minutes, the supernatant was removed, and the cells were resuspended in the same medium, the medium in the lower chamber was replaced with 750 μl of RPMI-1640 supplemented with 10% FBS, and the cells were seeded into the upper chamber at a density of 5×10^4 cells/well.
The cells were cultured for 24 hours after attachment, and then the compounds according to the present invention (G078, G085, G086, G088, G089, PBK-2024-010, PBK-2025-010, PBK-2025-013, PBK-2025-016) and the control substance DMSO were diluted and added to the upper chamber after removing the medium.
Additionally, the medium in the lower chamber was replaced with fresh RPMI-1640 containing FBS, and the culture was continued.
After an additional 24 hours, the medium was removed, and 1 ml of methanol was added for 10 minutes to fix the cells.
Subsequently, 1 ml of Hematoxylin was added and reacted for 5 minutes, followed by 1 ml of Eosin, which was reacted for 30 seconds. The sample was then washed with distilled water (DW).
After staining was complete, any remaining cells in the upper chamber were removed. Finally, the infiltrated cells were observed under a microscope, photographed, and the degree of infiltration was analyzed.

Experiment [2] has as its system T cells isolated from mouse spleen. Briefly: T cell proliferation inhibition, CFSE flow cytometry, CD3/CD28 activation. The class given is cell-based. Particulars: CD3/CD28 activated, 3 days. On the procedure: To verify the T cell proliferation inhibitory effect of the compounds according to the present invention, the following experiment was performed based on flow cytometry analysis using carboxyfluorescein diacetate succinimidyl ester (CFSE), a fluorescent dye that binds to intracellular molecules via covalent bonds.
Spleens were extracted from 7-week-old C57BL/6 mice, ground, and then separated into single cells using a strainer (40 μm pore size, SPL). Red blood cells were removed using ACK (Ammonium-Chloride-Potassium) lysis buffer to isolate white blood cells.
Finally, using a MACS Magnetic Stand and LS column, T cells were isolated from the spleen.
The T cells isolated from the spleen were resuspended in 1 mL of free medium (RPMI-1640+200 U/mL penicillin+200 μg/mL streptomycin), and 0.3 μL of CFSE (10 mM) was added. The mixture was incubated at 37° C. for 5 minutes.
Free medium (10 mL) was added to stop the reaction, and the cells were centrifuged to obtain the cell pellet.
RPMI 1640 medium containing 10% FBS, 100 U/mL penicillin, 100 μg/mL streptomycin, and resuspended the cells. The cells were then seeded into a 96-well plate at a density of 2×10^5 cells per well and activated with CD3 and CD28 antibodies (0.5 μg/mL each) to activate T cells.
The compound diluted in DMSO was added at concentrations of 10 nM, 100 nM, 1 μM, 10 μM, 30 μM, and 50 μM, with three wells per concentration, and cultured at 37° C. and 5% CO2 for three days. The cells were then analyzed using a FACS Canto instrument.
The proliferation inhibition rate (%) was calculated using the following formula: […]

In experiment [3] the test system is phospho-PDK1 in SU-DHL-8 cells. Briefly: PDK1 phosphorylation (pPDK1) by flow cytometry in SU-DHL-8 cells. The experiment is classed as cell-based, human. Particulars: SU-DHL-8, 24 hours, pPDK1-PE flow cytometry, vs control group. Here is the method: SU-DHL-8 cells were cultured in RPMI-1640 medium (containing 10% FBS, 100 U/mL penicillin, and 100 μg/mL streptomycin), and the cell concentration was adjusted to 1×10^6 cells/mL and seeded into a 12-well plate. After stabilizing the cells, the compound of the present invention was added, and the cells were cultured for 24 hours.
After drug treatment, the cells were harvested, and the Fc receptor blocking process was performed. The cells were then fixed and permeabilized using the Intracellular Staining Kit (Cat. No. BD554715) from BD Biosciences. Subsequently, the intracellular pPDK1 was stained using the pPDK1-PE fluorescently labeled antibody (BD Biosciences).
Referring to the figure, the vertical axis represents the phosphorylation level of PDK1 (phospho-PDK1 expression level), and the horizontal axis denotes the concentration-dependent treatment conditions of each compound.
Background: Flow cytometry measures light scatter and fluorescence of single cells or particles in a stream.

The next experiment has as its system MRL/lpr mice. As to the kind of experiment: Lupus animal model (MRL/lpr mice). The class given is in vivo, mouse. Particulars: 41-week-old female MRL/lpr mice; GO15F (30 mg/kg), GO48 (1 mg/kg), GO88 (0.5 mg/kg) intraperitoneally once daily. The source says:
The MRL/MpJ-Faslpr/J (Hereinafter Referred to as “MRL/lpr”) used in this experiment is one of the representative animal models for systemic lupus erythematosus (SLE), known to produce various autoantibodies, including antinuclear antibodies, due to the lpr (lymphoproliferation) gene.
In this invention, the period up to 9 weeks of age was considered the pre-disease stage, and the period after 23 weeks of age was considered the post-disease stage, and efficacy verification experiments using this model were conducted.
MRL/lpr mice were imported from The Jackson Laboratory and acclimatized for one week in an SPF (Specific Pathogen Free) facility maintained at a temperature of 21-24° C., humidity of 40-60%, and a 12-hour light-dark cycle (lights on at 7:00 AM, lights off at 7:00 PM). […]
The serum separated at the time of necropsy of the lupus animal model was analyzed using the ‘IgG (Total) Mouse Uncoated ELISA Kit (Invitrogen, Cat. #88-50400)’ to measure the concentration of total IgG.
Capture antibody (anti-mouse IgG) diluted 1/250 in coating buffer was added to each well of a 96-well plate (Nunc™ MaxiSorp™ ELISA Plates, Uncoated, BioLegend, Cat. #423501) at 100 μl per well, and the plate was incubated at 4° C. for 16 hours.
To investigate the effect of GO15F administration on changes in the ratio of immune cells in the spleen of a lupus animal model, the spleens of mice administered each compound were excised, cells were extracted, and the cells were suspended in MACS buffer (autoMACS Washing Solution, Miltenyi Biotec., Cat. #130-092-987).
For flow cytometry analysis, FACS tubes (5 mL round tubes, Falcon, Cat. #352052) were used. To prevent non-specific binding of antibodies, 1 μg/mL of anti-mouse CD16/CD32 (InVivoPlus anti-mouse CD16/CD32, BioXCell, Cat. #BP0307) for 30 minutes to prevent non-specific binding of the antibody, then centrifuge at 1,500 rpm for 5 minutes and resuspend in 100 μL of MACS buffer.
For B cells, each FACS tube was stained with 1 μg/mL of FITC-conjugated anti-B220 antibody (eBioscience™, Cat. #11-0452-81) at 4° C. for 30 minutes, then washed with 2 mL of MACS buffer.
For T cells, each FACS tube was stained with 1 μg/mL PerCP-Cy5.5-conjugated anti-CD3 (Biolegend, Cat. #100218) at 4° C. for 30 minutes.
For macrophages, each FACS tube was stained with 1 μg/mL of PE-conjugated anti-CD11b antibody (Biolegend, Cat. #101207) and PerCP-Cy5.5-conjugated anti-F4/80 (Biolegend, Cat. #123128) and incubated at 4° C. for 30 minutes. The tubes were then washed with 2 mL of MACS buffer.
To investigate the effects of compound GO15F according to the present invention on systemic immune responses in a lupus animal model, gene expression analysis of cytokines in kidney tissue was performed as described in (1).
Each kidney tissue was used to isolate total RNA using TRIzol™ (Invitrozen, Cat. #15596018). RNA from each mouse was quantified at 1 μg using a micro-quantitative spectrophotometer (ThermoFisher Scientific, ND2000) and cDNA was synthesized.
The synthesized cDNA from each mouse was quantified to a concentration of 50 ng using a micro-quantitative spectrophotometer, and qPCR was performed for the cytokines ‘IL-2, IL-6, IL-10, IL-17, TNF-α, IFN-γ’ using a SYBR green probe (CFX96, BIO-RAD).
To investigate the effects of drug administration on renal tissue in MRL/lpr mice, the tissue was fixed in 10% neutral buffered formalin at room temperature, followed by stepwise ethanol penetration for dehydration. The tissue was then embedded in xylene and paraffin.
The blocked tissues were sectioned into 4 μm thick slices using a microtome, followed by deparaffinization, hydration, and staining.
Hematoxylin & Eosin staining, PAS staining, and Masson trichrome staining were performed for pathological evaluation of the tissues. […]

Consider `Nc1ncccc1C(=O)NCCCCCCCCCCCCN1CC(F)C1` [Compound 52, 2-Amino-N-(12-(3-fluoroazetidin-1-yl)dodecyl)nicotinamide], for which the “number of infiltrated cells” value in experiment [1] was “reduction in the number of infiltrated cells”.

Turning to `CC(C)(C)OC(=O)N[C@H]1CCN(CCCCCCCCCCCCNC(=O)c2cccnc2N)C1` [Compound 49, tert-Butyl(S)-(1-(12-(2-aminonicotinamido)dodecyl)pyrrolidin-3-yl)carbamate], the “number of infiltrated cells” value in experiment [1] is “reduction in the number of infiltrated cells”.

For “12-(4-hydroxypiperazin-1-yl)dodecyl-N-(6-aminopurazin-2-yl)carboxamide [Compound 10]”, the “Proliferation inhibition rate (%)” value in experiment [2] (compound 10 nM), in experiment [2] (compound 100 nM), in experiment [2] (compound 1 μM), in experiment [2] (compound 10 μM), in experiment [2] (compound 30 μM) and in experiment [2] (compound 50 μM) was 100.00% in each case. The “number of infiltrated cells” value in experiment [1] is reported as “reduction in the number of infiltrated cells”.

Regarding `Nc1ncccc1C(=O)NCCCCCCCCCCCCN1CCNCC1` [Compound 5, 2-Amino-N-(12-(piperazin-1-yl)dodecyl)-nicotinamide], the “number of infiltrated cells” value in experiment [1] is recorded as “reduction in the number of infiltrated cells”.

In the case of `Nc1ncccc1C(=O)NCCCCCCCCCCCCN1CCOCC1` [Compound 2, 2-Amino-N-(12-morpholin-4-yl-dodecyl)-nicotinamide], the “PDK1 phosphorylation (phospho-PDK1 expression level)” value in experiment [3] is recorded as “stronger PDK1 inhibition”. For the same compound, the “hair growth on the facial region” value with MRL/lpr mice is “hair growth was confirmed”.

On to `O=C(NCCCCCCCCCCCCN1CCN2CCCC2C1)c1cccnc1` (stereo not shown) [Compound 23, N-(12-(hexahydropyrrolo[1,2-a]pyrazin-2 (1H)-yl)dodecyl)nicotinamide], for which, in experiment [1], the “number of infiltrated cells” value is reported as “reduction in the number of infiltrated cells”.
